Measurements reported in PMC6243185 (The Korean Journal of Parasitology, 2018).

Molecular target: T1, AcCP (rAcCP) (Acanthamoeba castellanii, UniProt A1YJR6)
T1 sequence (A1YJR6 44-330): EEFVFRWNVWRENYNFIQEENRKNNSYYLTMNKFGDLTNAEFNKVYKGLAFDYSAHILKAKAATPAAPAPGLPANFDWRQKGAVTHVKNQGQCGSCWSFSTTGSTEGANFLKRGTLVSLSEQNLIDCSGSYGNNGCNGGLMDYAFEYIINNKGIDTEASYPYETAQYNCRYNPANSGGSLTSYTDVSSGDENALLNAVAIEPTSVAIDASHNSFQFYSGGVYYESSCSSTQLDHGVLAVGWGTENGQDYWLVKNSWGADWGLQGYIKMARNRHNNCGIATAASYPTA
Assay: inhibition of fluorogenic substrate hydrolysis
Format: biochemical
Conditions: fully processed rAcCP; data not shown; covalent

With `CC(C)C[C@H](NC(=O)[C@H]1O[C@@H]1C(=O)O)C(=O)NCCCCN=C(N)N` [E-64, trans-epoxy-succinyl-L-leucylamido(4-guanidino)-butane] the “inhibition of fluorogenic substrate hydrolysis; active site titration” value was “The fully processed rAcCP was effectively inhibited by a cysteine protease inhibitor, E-64 (data not shown)”.
